From the supplement of paper PMC10307832

Key:
Assay in all cases: relative viability (nuclei count vs DMSO), 5 days (fraction); higher = more cells survive
NCI-H2085 = system: NCI-H2085
Outline: (§1)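 Lung cancer cell lines were pin-tool dosed in 1536-well plates on the day after seeding, with either a lone drug or a fixed anchor-drug dose plus five library-drug doses (not always all listed) in √10 steps. Nuclei were counted on 4× images after 5 days. Relative viability is the ratio of treated-well to vehicle-well nuclei counts, with each value a median of duplicate plates.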

HCC-78 = system: HCC-78
Outline: as §1

HCC-15 = system: HCC-15
Outline: as §1

NCI-H2347 = system: NCI-H2347
Outline: as §1

NCI-H358 = system: NCI-H358
Outline: as §1

NCI-H1993 = system: NCI-H1993
Outline: as §1

NCI-H650 = system: NCI-H650
Outline: as §1

HARA = system: HARA
Outline: as §1

NCI-H460 = system: NCI-H460
Outline: as §1

ABC-1 = system: ABC-1
Outline: as §1

NCI-H838 = system: NCI-H838
Outline: as §1

NCI-H2009 = conditions: first compound 0.04 µM
Outline: as §1

Clc1ccc(Nc2nnc(Cc3ccncc3)c3ccccc23)cc1 [Vatalanib] + C[C@]1(O)C[C@@H](c2nc(-c3ccc4ccc(-c5ccccc5)nc4c3)c3c(N)nccn32)C1 [Linsitinib] (partner 1 µM)
relative viability (NCI-H2085; first compound 0.04 µM): 0.919
relative viability (NCI-H2085; first compound 0.1265 µM): 0.974
relative viability (NCI-H2085; first compound 0.4 µM): 1.05
relative viability (NCI-H2085; first compound 1.265 µM): 0.846
relative viability (NCI-H2085; first compound 4 µM): 0.886
relative viability (HCC-78; first compound 0.04 µM): 0.507
relative viability (HCC-78; first compound 0.1265 µM): 0.467
relative viability (HCC-78; first compound 0.4 µM): 0.527
relative viability (HCC-78; first compound 4 µM): 0.448
relative viability (HCC-15; first compound 0.04 µM): 0.937
relative viability (HCC-15; first compound 0.1265 µM): 0.911
relative viability (HCC-15; first compound 0.4 µM): 0.902
relative viability (HCC-15; first compound 1.265 µM): 0.87
relative viability (HCC-15; first compound 4 µM): 0.873
relative viability (NCI-H2347; first compound 0.04 µM): 1.01
relative viability (NCI-H2347; first compound 0.1265 µM): 0.908
relative viability (NCI-H2347; first compound 0.4 µM): 0.976
relative viability (NCI-H2347; first compound 1.265 µM): 0.901
relative viability (NCI-H2347; first compound 4 µM): 0.942
relative viability (NCI-H358; first compound 0.04 µM): 0.898
relative viability (NCI-H358; first compound 0.1265 µM): 0.718
relative viability (NCI-H358; first compound 0.4 µM): 0.917
relative viability (NCI-H358; first compound 1.265 µM): 0.699
relative viability (NCI-H358; first compound 4 µM): 0.578
relative viability (NCI-H1993; first compound 0.04 µM): 0.699
relative viability (NCI-H1993; first compound 0.1265 µM): 0.754
relative viability (NCI-H1993; first compound 0.4 µM): 0.745
relative viability (NCI-H1993; first compound 1.265 µM): 0.727
relative viability (NCI-H1993; first compound 4 µM): 0.734
relative viability (NCI-H650; first compound 0.04 µM): 0.942
relative viability (NCI-H650; first compound 0.1265 µM): 0.77
relative viability (NCI-H650; first compound 1.265 µM): 0.723
relative viability (NCI-H650; first compound 4 µM): 0.833
relative viability (HARA; first compound 0.04 µM): 1.02
relative viability (HARA; first compound 0.1265 µM): 0.896
relative viability (HARA; first compound 0.4 µM): 1
relative viability (HARA; first compound 1.265 µM): 0.84
relative viability (HARA; first compound 4 µM): 0.838
relative viability (NCI-H460; first compound 0.04 µM): 1.01
relative viability (NCI-H460; first compound 0.1265 µM): 0.684
relative viability (NCI-H460; first compound 0.4 µM): 0.732
relative viability (NCI-H460; first compound 1.265 µM): 0.699
relative viability (NCI-H460; first compound 4 µM): 0.711
relative viability (ABC-1; first compound 0.04 µM): 0.89
relative viability (ABC-1; first compound 0.1265 µM): 0.767
relative viability (ABC-1; first compound 0.4 µM): 1.05
relative viability (ABC-1; first compound 1.265 µM): 0.659
relative viability (ABC-1; first compound 4 µM): 0.981
relative viability (NCI-H838; first compound 0.04 µM): 1.01
relative viability (NCI-H838; first compound 0.1265 µM): 0.994
relative viability (NCI-H838; first compound 0.4 µM): 1.15
relative viability (NCI-H838; first compound 1.265 µM): 0.932
relative viability (NCI-H838; first compound 4 µM): 0.976
relative viability (NCI-H2009): 1.16
